# Experimental data reported in patent EP4703362A1 (Chengdu Sibeibo Pharmaceutical Technology Co., Ltd, priority 2023, dated 2024).
# pKi: −log10 of the molar value. Like-named read-outs stand apart in the source and are kept apart here.
# What was measured:
# [1] = stability test in liver microsomes (monkey); type: in vitro ADME
# Protocol: (§1) The stability of the compound of the present invention in liver microsomes of rat, monkey and human was determined. Tested compounds of the present invention were the compounds in Examples 6, 8 and 29, and a control drug was Zavegepant.
# (§2) 3.2 An appropriate amount of liver microsome solution was transferred into a 1 mL 96-deep-well plate, added with a tested drug liquid (or a probe substrate solution), and pre-incubated in a thermal mixer at 37°C for 5 minutes. Two parts of mixed solutions were taken out from the system and added with 1×PBS to replace NADPH, and the mixed solutions were taken out at 0 and 60 minutes respectively, and added with methanol (containing an internal standard) to terminate the reaction. In the remaining mixed system, each well was added with NADPH to start the reaction. In the tested substance group, mixed solutions were taken out from the system at 0, 5, 15, 30, 45 and 60 minutes, and in the control group, mixed solutions were taken out from the system at 0, 30 and 60 minutes, and the mixed solutions were added methanol (containing an internal standard) to terminate the reaction. All samples of the terminated reaction were mixed evenly and centrifuged in a centrifuge at 3800 rpm for 15 minutes, and the supernatant was taken for LC-MS/MS analysis.
# (§3) A peak area was determined by an extracted ion chromatogram. A slope value k was determined by linear regression of a remaining percentage of a parent drug relative to a natural logarithm of an incubation time curve. According to the slope, in-vitro half-life periods (t1/2) were respectively calculated, and in-vitro intrinsic clearance rates (CLint, represented by µL/min/mg protein) were calculated. Calculation formulas were as follows: t1/2 = ln2/k = 0.693/k; and CLint = 0.693/t1/2 /liver microsome protein concentration [formula]
# [2] = stability test in liver microsomes (human); type: in vitro ADME
# Protocol: as §1, §2, §3
# [3] = stability test in liver microsomes (rat); type: in vitro ADME
# Protocol: as §1, §2, §3
# [4] = in-vivo pharmacokinetic study on SD rats, intravenous and intranasal administration; settings: for AUC: read-out: Area under curve AUC; for bioavailability: read-out: Bioavailability F%; for half-life: read-out: Half-life period t1/2 (converted); for Vd: read-out: Volume of distribution steady-state Vss
# Protocol: Species: SD rats, male, SPF level.
# 2.1 An appropriate amount of drug was accurately weighed and added with 50 mM succinate buffer (diluted with D5W, pH=5-6), and mixed evenly and dissolved fully in an ultrasonic and vortexed mode to obtain a 0.2 mg/mL drug solution for intravenous (IV) administration.
# 2.2 An appropriate amount of drug was accurately weighed and added with 50 mM succinate buffer (diluted with pure water, pH=5-6), and mixed evenly and dissolved fully in an ultrasonic and vortexed mode to obtain a 10 mg/mL drug solution for intranasal (IN) administration.
# 5 minutes, 10 minutes, 15 minutes, 0.5 hour, 1 hour, 2 hours, 4 hours, 8 hours and 24 hours after administration.
# Blood was collected through a jugular vein, about 0.2 mL of each sample was collected, EDTA-K2 was used for anticoagulation, the collected blood sample was placed on ice, and plasma was centrifugally separated within 2 hours (at 6000 g and 2-8°C for 5 minutes). The collected plasma samples were stored in a refrigerator at -80°C before analysis, and the remaining plasma samples after analysis were continuously stored in the refrigerator at -80°C for temporary storage.
# A concentration of a specified compound in plasma was determined by an LC-MS/MS method, and main pharmacokinetic parameters were calculated by a Winnolin 8.3 non-compartmental model.
# [5] = plasma protein binding rate test, equilibrium dialysis (rat); type: in vitro ADME, SD rat; settings: 1 µM, 6 hours, 37°C
# Protocol: (§4) Protein binding rates of the compound of the present invention in plasma of rat, monkey and human were determined by an equilibrium dialysis method. Tested compounds of the present invention were the compounds in Examples 6, 8 and 29, and a control drug was Zavegepant.
# (§5) 3.1 A dry dialysis membrane was rinsed with ultrapure water for 2-3 times, and then soaked in a phosphate buffer for 1 hour for later use. Polytetrafluoroethylene module was soaked in 20% ethanol for 30 minutes, and then surface moisture was dried with dust-free paper for later use. The pretreated dialysis membrane was assembled into a dialysis plate according to the product specification, and one side (receptor compartment) of an osmotic membrane in each dialysis well was added with 100 µL of receptor fluid (100 mM phosphate buffer solution plus 0.002% Tween 80).
# (§6) 3.2 The plasma was put into a centrifuge tube, a working solution of a tested substance was added into the plasma, wherein a final concentration was 1 µM, and the mixture was turned upside down and mixed evenly (this step was carried out in ice bath). 20 µL of drug-containing plasma each was taken, and was respectively transferred to a 96-well sample plate according to two parts in parallel, and stored in a refrigerator at -20°C as a T0 sample.
# (§7) 3.3 Another 100 µL of the above drug-containing plasma was transferred to the other side (sample compartment) of the membrane in the dialysis device according to two parts in parallel, and incubated under vibration at a constant temperature of 37°C for 6 hours. After 6 hours of incubation, 20 µL of the plasma was respectively taken out from the receptor compartment and the sample compartment after equilibration to obtain samples B and A. The samples B and A were respectively added with corresponding volumes of corresponding blank plasma or phosphate buffer solution (containing 0.002% Tween 80), so that a volume ratio of the plasma to the buffer solution in each sample well was 1: 1.
# (§8) 3.4 All sample wells were added with 250 µL of methanol solution containing an internal standard, mixed evenly and then centrifuged in a centrifuge at 3800 rpm for 10 minutes. […]
# (§9) A plasma protein binding rate and a recovery rate of the compound in plasma were calculated by the following formulas: dissociation percentage (%) = CB /CA; [formula] plasma protein binding rate (fb%) = 1−dissociation percentage (%); [formula] recovery rate (%) = (CB+CA)/CT0 [formula] wherein CB was a concentration of the compound in the receptor fluid after equilibrium dialysis; CA was a concentration of the compound in the drug-containing plasma after equilibrium dialysis; and CT0 was an initial concentration of the compound in plasma.
# [6] = plasma protein binding rate test, equilibrium dialysis (monkey); type: in vitro ADME, cynomolgus monkey; settings: 1 µM, 6 hours, 37°C
# Protocol: as §4, §5, §6, §7, §8, §9
# [7] = test system: capsaicin-induced change of blood flow in forearm skin of cynomolgus monkeys; assay: in-vivo pharmacodynamic study, capsaicin-induced change of blood flow in forearm skin; settings: 0.05 mg/kg IV, 10 minutes after capsaicin treatment
# Protocol: • 2.1Animal information: Species and strain: cynomolgus monkeys, male (5-8 kg), animal license: SYXK(Su)2019-0004, depilated 3 days before the experiment. • 2.2Preparation of test sample: An appropriate amount of drug was accurately weighed and dissolved in sterile saline solution, and mixed evenly and dissolved fully in an ultrasonic and vortexed mode to obtain a 0.05 mg/ml drug solution for intravenous (IV) administration. • 2.3In a pre-test stage, a blood flow in a forearm of an anesthetized animal was scanned by a blood flow meter, and an O-shaped rubber ring was placed on an inner side of the arm, avoiding obvious blood vessels.
# [8] = plasma protein binding rate test, equilibrium dialysis (human); type: in vitro ADME; settings: 1 µM, 6 hours, 37°C
# Protocol: as §4, §5, §6, §7, §8, §9
# CGRP receptor = target: T1, CGRP receptor (Homo sapiens, UniProt O60894+Q16602); assay: Competitive binding determination of in-vitro [125I] CGRP; settings: competition with 125I-CGRP (Human) 200 pM, SK-N-MC cell membrane
# T1 construct: A tissue homogenate of SK-N-MC cell membrane was used as a receptor source; host or cells: SK-N-MC (membrane preparation)
# [9] = male, rat, plasma, other: intranasal, IN@2 mg/kg
SMILES,half-life at 1 µM [1] [h],microsomal CLint at 1 µM [1] [µL/min/mg],% remaining (60 min) [1] [%],half-life at 1 µM ([2]; 1.0 µM) [h],% remaining (60 min) [2] [%],half-life at 1 µM [3] [h],microsomal CLint at 1 µM [3] [µL/min/mg],% remaining (60 min) [3] [%],fb (%) [5] [%],fb (%) [6] [%],blood flow inhibition rate (Mean) [7] [%],fb (%) [8] [%],also measured
"Cc1cc(C[C@@H](NC(=O)N2CCC(c3cc4c([nH]c3=O)SCCC4)CC2)C(=O)N2CCN(C3CCN(C)CC3)CC2)cc2cn[nH]c12 [Example 6, (R)-N-(3-(7-methyl-1H-indazole-5-yl)-1-(4-(1-methylpiperidine-4-yl)piperazine-1-yl)-1-oxopropan-2-yl)-4-(7-oxo-3,4,7,8-tetrahydro-2H-thiopyrano[2,3-b]pyridine-6-yl)piperidine-1-for mamide]",> 2,0.8,96.9,> 2,131,> 2,2.4,91.5,90.0,61.3,355.3,76.7,"AUC ([4]; rat, plasma, IN@2 mg/kg): 2400 ng·h/mL; bioavailability ([4]; rat, plasma, IN@2 mg/kg): 20.1%; half-life ([4]; rat, plasma, IN@2 mg/kg): 3.8 h; AUC ([4]; rat, plasma, IV@1 mg/kg): 5990 ng·h/mL; half-life ([4]; rat, plasma, IV@1 mg/kg): 2.52 h; Vd ([4]; rat, plasma, IV@1 mg/kg): 0.29 L/kg"
"Cc1cc(C[C@@H](NC(=O)N2CCC(c3cc4ccccc4[nH]c3=O)CC2)C(=O)N2CCN(C3CCN(C)CC3)CC2)cc2cn[nH]c12 [Zavegepant, zavegepant, reference compound]",1.78,13,72.1,1.11,57.5,> 2,2.8,95.5,92.7,78.5,89.7,82.0,"microsomal CLint at 1 µM ([2]; 1.0 µM): 20.8 µL/min/mg; Apparent clearance CL ([4]; IV@1 mg/kg): 4.59 mL/min/kg; AUC ([4]; male, rat, plasma, IV@1 mg/kg): 3620 ng·h/mL; half-life ([4]; male, rat, plasma, IV@1 mg/kg): 2.58 h; Vd ([4]; male, rat, plasma, IV@1 mg/kg): 0.35 L/kg; AUC [4, 9]: 385 ng·h/mL; bioavailability [4, 9]: 5.31%; Cmax ([4]; male, rat, plasma, other: intranasal, IN@2 mg/kg, read-out: Concentration to peak Cmax): 645 ng/mL; half-life [4, 9]: 1.08 h; pKi (CGRP receptor): 10.30"
